Series [1] in a line: Pd(0) Larock indole macrocyclisation (aryl C-Br + TES-alkyne, ArNHAc; forms Trp C3a-C3 and N1-C2 bonds); Pd(OAc)2 0.5 eq, tBu3P·HBF4 1.0 eq, DIPEA 10 eq. The following applies: the molecule shown is the open-chain precursor; 16-membered ring; toluene; 20.0 mM; 110.0 °C; 12.0 h; 5 steps.
The nature of series [2]: Pd(0) Larock indole macrocyclisation (aryl C-Br + TES-alkyne); Pd(OAc)2 0.5 eq, tBu3P·HBF4 1.0 eq, DIPEA 10 eq for 54; 32 by previously reported procedure. To be noted: the molecule shown is the open-chain precursor, 110.0 °C.

These results are taken from publication PMC13250620.

On to `CC[Si](C#CC[C@H](NC(=O)[C@@H]1CCCN1C(=O)[C@H](Cc1ccc(F)c(-c2ccc(NC(C)=O)c(Br)c2)c1)NC(=O)OC(C)(C)C)C(=O)OC)(CC)CC` [Boc-Phe(4-F, 3-(4-NHAc-3-Br-phenyl))-Pro-Pra(TES)-OMe], for which, in series [1], the ring closure, yield over several steps was 31%.
For `CC[Si](C#CC[C@H](NC(=O)OC(C)(C)C)C(=O)N[C@@H](C)C(=O)N[C@@H](CC(C)C)C(=O)N[C@@H](Cc1ccc(OC)c(-c2ccc(Br)c(N)c2)c1)C(=O)OC)(CC)CC` [Boc-Pra(TES)-Ala-Leu-Tyr(OMe, 3-(3-NH2-4-Br-phenyl))-OMe], in series [2] (20-membered ring;, 12.0 h), the ring closure, isolated yield stood at 79%.
Take `CC[Si](C#CC[C@H](NC(=O)[C@@H]1CCCN1C(=O)[C@H](Cc1ccc(OC)c(-c2ccc(NC(C)=O)c(Br)c2)c1)NC(=O)OC(C)(C)C)C(=O)OC)(CC)CC` [Boc-Tyr(OMe, 3-(4-NHAc-3-Br-phenyl))-Pro-Pra(TES)-OMe]: the ring closure, isolated yield in series [2] (16-membered ring;) was determined as 45%.
With `CC[Si](C#CC[C@H](NC(=O)[C@@H]1CCCN1C(=O)[C@H](Cc1cccc(-c2ccc(NC(C)=O)c(Br)c2)c1)N1C(=O)c2ccccc2C1=O)C(=O)OC)(CC)CC` [Phth-Phe(3-(4-NHAc-3-Br-phenyl))-Pro-Pra(TES)-OMe], the ring closure, yield over several steps in series [1] came to 30%.
On to `CC[Si](C#CC[C@H](NC(=O)[C@@H]1CCCN1C(=O)[C@H](Cc1ccc(C)c(-c2ccc(NC(C)=O)c(Br)c2)c1)N1C(=O)c2ccccc2C1=O)C(=O)OC)(CC)CC` [Phth-Phe(4-Me, 3-(4-NHAc-3-Br-phenyl))-Pro-Pra(TES)-OMe], for which the ring closure, yield over several steps in series [1] was determined as 39%.
As for `CC[Si](C#CC[C@H](NC(=O)[C@@H]1CCCN1C(=O)[C@H](Cc1cc(F)cc(-c2ccc(NC(C)=O)c(Br)c2)c1)N1C(=O)c2ccccc2C1=O)C(=O)OC)(CC)CC` [Phth-Phe(5-F, 3-(4-NHAc-3-Br-phenyl))-Pro-Pra(TES)-OMe], in series [1], the ring closure, yield over several steps was 23%.
